Measured values: patent US20170191058A1, “PERFORIN 2 DEFENSE AGAINST INVASIVE AND MULTIDRUG RESISTANT PATHOGENS” (priority 2012, published 2017)
“Also recorded” adds a separate entry of the source. Residues, ends and D or L forms follow the SMILES beside them. *: point of attachment. Cbz = O=C(OCc1ccccc1)*

Experiments:
P-2 protein = assay: Western blot of P-2 protein in interferon-activated mEF; assay type: cell-based, murine; settings: IFN-γ 14 hours then 1 hour MG-132
Procedure: (§1) Murine embryonic fibroblasts (FIG. 14A), a rectal cancer cell line (FIG. 14B), myoblast cell line (FIG. 14C), and an ovarian cell line (FIG. 14D) were treated for 14 hours with 100 U/ml interferon-α, interferon-β, and interferon-γ treated. LPS was treated at 1 ng/ml; IL-1α at 10 U/ml, IL-1β at 1 ng/ml, and TNFα at 20 ng/mL. A human embryonic kidney cell line (FIG. 14E) and cervical cancer cell line (FIG. 14F) were treated with human IFN-α at 150 U/ml, IFN-β and IFN-γ at 100 U/ml. The BV2 microglial cell line was stimulated with 100 U/ml of murine Interferon-γ for 14 hours to upregulate P-2 mRNA and protein. mEF treated with IFN-γ for 14 hours (mEF), or IFN-γ for 14 hours followed by 1 hour of treatment with […] MG-132 (mEF+MG132) (FIG. 14G). Human primary keratinocytes were analyzed for protein expression with indicated recombinant human IFN treatment (FIG. 14H). mEF were treated with E. coli or M. smegmatis. At indicated time points, cells were harvested and analyzed for P-2 mRNA and compared to uninfected controls by TAQMAN™ PCR. (FIG. 14I) mEF were either not stimulated, or stimulated for 14 hours with IFN-γ at 100 U/ml. After stimulation, mEF were infected with M. smegmatis and analyzed for colony forming units at indicated time points.
Rabbit anti-Mpeg1 polyclonal antibody was obtained from Abcam and used for western blot analysis.

P-2 mRNA = P-2 mRNA expression in mEF by TAQMAN PCR after cytokine treatment; assay type: cell-based, murine; settings: added singly, 14 hours
Procedure: as §1
Recombinant murine IL-1α, IL-1β, TNFα, IFN-γ, IFN-α, IFN-β recombinant human IFN-γ, IFN-β were purchased from preprotech. Recombant human IFN-α was purchased from R&D systems. Murine […] was supplemented at 10 U/mL where indicated. Murine IL-1β was supplemented at 1 ng/ml. Murine TNFα was supplemented at 20 ng/ml. Murine IFN-α, IFN-β and IFN-γ was supplemented with 100 U/ml. Human IFN-α was supplemented where indicated in at a concentration of 150 U/ml where indicated. Human IFN-β and IFN-γ was supplemented at a concentration of 100 U/ml. LPS was added at a concentration of 1 ng/ml.
RNA was extracted from cells following RNeasy (Qiagen) instructions. One μg of RNA was converted to cDNA using QuantiTect Reverse Transcription kit (Qiagen) following supplier's protocol. qRT-PCR was performed using TAQMAN® Gene Expression Assays (Applied Biosystems) for murine Mpeg1 and GAPDH, with the later serving as a housekeeping control gene. For human tissues, human Mpeg1 and GapDH probes were utilized. All assays were performed on the Applied Biosystems 7300 PCR platform.

Salmonella = assay: Gentamycin protection assay: intracellular Salmonella in mEF; assay type: cell-based, Salmonella typhimurium
Procedure: Mouse rectal carcinoma CMT-93 was transiently transfected with a P-2 siRNA pool, or with P-2-RFP. Scramble siRNA or RFP were also transfected and analyzed to serve as controls for P-2 siRNA and P-2-RFP respectively. All transfections were performed 24 hours prior to infection. 14 hours prior to infection, cells were incubated with 100 U/ml of species specific IFN-γ. At indicated time points after infection, cells were lysed and plated for CFU analysis. (FIGS. 16A-16D) mEF were transfected with P-2siRNA and complemented with siRNA resistant P-2-RFP cDNA 24 hours prior to infection. 14 hours prior to infection, interferon-γ was added. mEF were infected with late log phase S. typhimurium. At indicated time points mEFs were lysed and analyzed for colony forming units. […]
S. typhimurium strain LT2Z), Mycobacterium smegmatis, methicillin-resistant Staphylococcus aureus, and E. coli strain K12 were grown from glycerol stocks at 37° C. with shaking for 24 hours in Luria broth (S. typhimurium, S. aureus, and E. coli) or Middlebrook 7H9 broth (M. smegmatis). […] At indicated time points, cells were washed with PBS, lysed using 1% Igepal in ddH2O, diluted and plated in technical triplicate on LB agar plates (S. typhimurium, S. aureus, E. coli) or Middlebrook 7H11 plates (M. smegmatis) and CFU determined after sufficient colony growth.

S. typhimurium = assay: Gentamycin protection assay: intracellular S. typhimurium in peritoneal macrophages (PEM); assay type: cell-based, Salmonella typhimurium; settings: for additional effect on intracellular replication/killing when combined with P-2 knockdown: inhibitor plus P-2 siRNA knock down; for effect on intracellular killing of Salmonellae: single effector blocked, 1-5 h post-infection
Procedure: (§2) Gentamicin protection assay: S. typhimurium strain LT2Z, Mycobacterium avium, Mycobacterium smegmatis (ATCC), methicllin resistant Staphylococcus aureus and K12 E. coli were grown from glycerol stocks at 37° C. with shaking for 16-18 hr in Luria broth (LB) (S. typhimurium, S. aureus, and E. coli) or Middlebrook 7H9 broth (Mycobacteria) prior to infection. For Salmonella, the culture was then diluted 1:33 in LB and grown for another 3 hours to induce invasive phenotype. Macrophages or microglial cells were plated (5×10^5 cells/well of a 12 well plate) and stimulated overnight with LPS (Ing/ml) and IFN-γ (100 U/ml). Cells were infected the next day at indicated MOI for 30 minutes (S. typhimurium,) or 1 hour (all other bacteria) in 37° C., 5% CO2 incubator. Cells were washed twice with PBS and fresh medium containing 50 μg/ml gentamicin was added. After 2 hours the concentration of gentamicin was lowered to 5 μg/ml. At the indicated timepoints after adding gentamicin, the cells were washed with PBS, lysed using 0.1% Triton-X in water, diluted and plated in triplicate on agar plates and CFU determined.
The current understanding of bactericidal responses in macrophages is that they are mediated by oxidative mechanisms, such as ROS and NO within the phagosome, and by phagosome-lysosome fusion. To assess the role of P-2 in comparison to ROS and NO in intracellular killing of bacteria, each of the bactericidal effectors was blocked individually or in combination with P-2, and intracellular bacterial survival in peritoneal macrophages (PEM) measured between 1 and 5 hours post-infection utilizing the gentamycin protection assay (FIGS. 1A-1C). Gentamycin is membrane impermeable and present only in the extracellular medium. Inhibition of ROS, NO or P-2 individually had different effects on different bacteria. Using S. typhimurium, ˜90% bacteria present intracellularly in PEM at 1 h were dead at 5 h in the absence of inhibitors (˜10% survival, FIG. 1 A). […] In other words without P-2 ROS and NO have little effect on killing of Salmonellae.
Here we analyze the bactericidal efficiency of each effector pathway and their synergism. We blocked each effector individually and determined intracellular survival and replication or killing of intracellular S. typhimurium and M. smegmatis. These experiments were carried out with intestinal epithelial cells (CMT93) (not shown) and in IFN-γ activated PEM (FIG. 27e) with virtually identical results. First, we ascertained that IFN-γ activated and LPS stimulated PEM produced ROS and NO and that this production is not affected by P-2 siRNA knock down. We also ascertained that the ROS and NO inhibitors used were specific and active in blocking ROS or NO (not shown). PEM are able to kill about 90% of intracellular Salmonella in the first four hours after infection when all three effectors were active in scramble siRNA transfected cells (FIG. 27e, solid lines). […] M. smegmatis is more resistant to killing by bactericidal effectors within 4 hours. […] Blockade of ROS or NO without P-2 knock down had only limited, non-significant effects on bactericidal activity against Mycobacteria.
Intracellular bactericidal activity was adapted from. In brief, bacteria were grown at 37° C. with shaking for 16-18 hours in Luria broth (LB) (S. typhimurium, S. aureus, and E. coli) or 24 hours in Middlebrook 7H9 broth (Mycobacteria) prior to infection. For S. typhimurium, E. coli, and S. aureus the culture was then diluted 1:33 in LB and grown for another 3 hours to allow the bacteria to enter log phase and for Salmonella to induce the invasive phenotype. Eukaryotic cells were transfected following Lonza's optimized protocol for the respective cells, and plated into 12-well plates post-transfection. […]

[1] = test system: E. coli, S. typhimurium and M. smegmatis; assay: Bacterial growth in medium with ROS/NO inhibitors, no PEM (OD 600); assay type: cell-based; settings: 10 mM, IMDM+10% FBS, 5 hours
Procedure: E. coli, S. typhimurium and M. smegmatis were grown in IMDM+10% FBS in the presence or absence of NAC (10 mM) or L-NAME (10 mM) for 5 hours. Bacterial growth was measured by spectrophotometer at an OD of 600 nm at 1 and 4 hours after addition of inhibitors to the culture medium.

[2] = test system: E. coli, S. typhimurium, M. smegmatis; assay: Gentamycin protection assay in PEM infected with E. coli, S. typhimurium or M. smegmatis (FIG. 1); assay type: cell-based; settings: 10 mM NAC, 10 mM L-NAME or pool of 3 siRNAs, CFU at 1 h and 5 h
Procedure: The gentamycin protection assay was carried out as in FIGS. 2A-2F. 24 h after transfection with P-2 siRNA or scrambled siRNA. PEM were infected with (FIG. 1A) E. coli, (FIG. 1B) S. typhimurium, or (FIG. 1C) M. smegmatis. Inhibitors were added 1 h before infection and maintained throughout assay. Cells were lysed and CFU determined at 1 h and 5 h post-infection. Data shown are representative of 3 experiments with 2 replicates; asterisks denote significance (p<0.05) based on students t-test.
as §2, with “Cells were infected the next day at indicated MOI for 30 minutes (S. typhimurium,) or 1 hour (all other bacteria) in 37° C., 5% CO2 incubator. Cells were washed twice with PBS and fresh medium containing 50 μg/ml gentamicin was added. After 2 hours the concentration of gentamicin was lowered to 5 μg/ml.” left out

For `CC(C)C[C@@H](C=O)NC(=O)[C@H](CC(C)C)NC(=O)[C@H](CC(C)C)NC(=O)OCc1ccccc1` [MG132] (Cbz-Leu-Leu-Leu-aldehyde), the “detection of P-2 protein by Western blot” value (P-2 protein) was “P-2 protein is not detected by Western blot analysis of interferon-activated mEF unless the proteasome inhibitor MG132 is added”.

IFNα was tested, and the “P-2 mRNA induction in mEF” value (P-2 mRNA) was “up-regulates P-2 mRNA”.

In the case of `Cn1cnc(N)c2ncnc1-2` [3-MA, 3-methyl-adenine], the “effect on intracellular Salmonella replication in mEF” value (Salmonella) is reported as “permits Salmonella replication; also recorded: allows replication of Salmonella”.

For TNFα, the “P-2 mRNA induction in mEF” value (P-2 mRNA) was “do not induce P-2 mRNA”.

`CC(=O)N[C@@H](CS)C(=O)O` [NAC, N-Acetylcysteine] was tested, and the “survival of Salmonellae at 5 h compared to 1 h levels” value (S. typhimurium; inhibitor 10 mM, added 1 h before infection, ~10% survival without inhibitors) was roughly 80%, the “additional effect on intracellular replication/killing when combined with P-2 knockdown” value (S. typhimurium) was “did not further increase intracellular replication; also recorded: no further effect” and the “effect on intracellular killing of Salmonellae” value (S. typhimurium) was “slows down the killing activity”. For the same molecule, the “effect on bacterial growth in the absence of PEM” value [1] was “do not directly inhibit bacterial growth” and the intracellular killing [2] was “Intracellular killing was inhibited”.

With `COC(=O)[C@@H](N)CCCN=C(N)N[N+](=O)[O-].Cl` [L-NAME, N^G-nitro-L-arginine-methyl ester hydrochloride] the “additional effect on intracellular replication/killing when combined with P-2 knockdown” value (S. typhimurium; hydrochloride) was “did not further increase intracellular replication”, the “additional effect on intracellular replication/killing when combined with P-2 knockdown” value (S. typhimurium; listed as NAME, hydrochloride) was “no further effect” and the “effect on intracellular killing of Salmonellae” value (S. typhimurium; hydrochloride) was “slows down the killing activity”. The “effect on bacterial growth in the absence of PEM” value [1] was “do not directly inhibit bacterial growth” and the intracellular killing [2] was “Intracellular killing was inhibited”.

B1: IL-1α: recombinant murine IL-1α (protein, UniProt P01582 115-270, looked up)
Interleukin-1 alpha: SAPYTYQSDLRYKLMKLVRQKFVMNDSLNQTIYQDVDKHYLSTTWLNDLQQEVKFDMYAYSSGGDDSKYPVTLKISDSQLFVSAQGEDQPVLLKELPETPKLITGSETDLIFFWKSINSKNYFTSAAYPELFIATKEQSRVHLARGLPSMTDFQIS
In the case of B1, the “P-2 mRNA induction in mEF” value (P-2 mRNA) is reported as “do not induce P-2 mRNA”.
